Assay results published in ChEMBL document CHEMBL4342403, “New evolutions in the BACE1 inhibitor field from 2014 to 2018” (Bioorg Med Chem Lett, 2019).

Tests used:
[1] = target: T1, Beta-secretase 1 (Homo sapiens, UniProt P56817); assay: Inhibition of BACE1 in HEK293 cells harboring APP assessed as reduction in amyloidbeta 40 level incubated for 18 to 20 hrs by AlphaLISA Assay; type: cell-based
[2] = test system: Mus musculus; assay: In vivo inhibition of BACE1 in C57B1/6J mouse assessed as reduction in amyloidbeta 40 level in brain at 30 mg/kg, po measured at 4 hrs post dose by ELISA relative to control; type: functional
[3] = target: T1, Beta-secretase 1; assay: Inhibition of human BACE1 expressed in Escherichia coli preincubated for 1 hr followed by Mca-Ser-Glu-Val-Asn-Leu-Asp-Ala-Glu-Phe-Lys(Dnp)-OH substrate addition by spectroflurimetric assay
[4] = Dissociation constant, pKa of the compound; type: physicochemical
[5] = target: T1, Beta-secretase 1; assay: Inhibition of BACE1 (unknown origin) incubated for 120 mins using APP swedish mutant as substrate by FRET assay
[6] = test system: Canis familiaris; assay: In vivo inhibition of BACE1 in Beagle dog assessed as reduction in amyloidbeta (1 to 42 residues) at 0.31 mg/kg, po measured at 8 hrs post dose relative to baseline; type: functional; settings: Canis lupus familiaris
[7] = test system: Canis familiaris; assay: In vivo inhibition of BACE1 in Beagle dog assessed as reduction in amyloidbeta (1 to 42 residues) at 0.16 mg/kg, po measured at 8 hrs post dose relative to baseline; type: functional; settings: Canis lupus familiaris
[8] = test system: Canis familiaris; assay: In vivo inhibition of BACE1 in Beagle dog assessed as reduction in amyloidbeta (1 to 42 residues) at 1.25 mg/kg, po measured at 8 hrs post dose relative to baseline; type: functional; settings: Canis lupus familiaris
[9] = target: T1, Beta-secretase 1; assay: Inhibition of BACE1 in human SK-N-BE(2) cells expressing human APP695 assessed as reduction in amyloidbeta (1 to 42 residues) level incubated for 18 hrs by sandwich ELISA; type: cell-based
[10] = target: T2, Beta-secretase 2 (Homo sapiens, UniProt Q9Y5Z0); assay: Inhibition of BACE2 (unknown origin) incubated for 450 mins using APP swedish mutant as substrate by FRET assay
T2 sequence (Q9Y5Z0 whole entry): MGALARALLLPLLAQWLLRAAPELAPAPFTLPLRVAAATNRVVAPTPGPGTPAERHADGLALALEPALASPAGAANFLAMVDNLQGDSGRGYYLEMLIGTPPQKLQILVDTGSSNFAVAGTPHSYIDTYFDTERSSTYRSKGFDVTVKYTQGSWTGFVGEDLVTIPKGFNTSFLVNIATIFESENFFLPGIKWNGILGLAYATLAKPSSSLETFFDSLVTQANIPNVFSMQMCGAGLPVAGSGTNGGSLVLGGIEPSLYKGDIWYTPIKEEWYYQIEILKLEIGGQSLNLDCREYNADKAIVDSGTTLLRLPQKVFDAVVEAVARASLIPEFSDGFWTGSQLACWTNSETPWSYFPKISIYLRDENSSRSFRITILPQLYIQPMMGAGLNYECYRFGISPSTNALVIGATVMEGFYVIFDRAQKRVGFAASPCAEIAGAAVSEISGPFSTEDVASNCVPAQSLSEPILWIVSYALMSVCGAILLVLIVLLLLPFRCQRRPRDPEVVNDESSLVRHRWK

[11] = target: T1, Beta-secretase 1; assay: Inhibition of BACE1 in human H4 cells transfected with APP695 assessed as […] incubated for 18 hrs by ELISA; type: cell-based
[12] = test system: Homo sapiens; assay: In vivo inhibition of BACE1 in human assessed as reduction in amyloidbeta(1 to 42 residues) level in CSF at 125 mg, qd administered up to 14 days relative to control; type: functional
[13] = test system: Homo sapiens; assay: In vivo inhibition of BACE1 in human assessed as reduction in amyloidbeta(1 to 42 residues) level in CSF at 275 mg, qd administered up to 14 days relative to control; type: functional
[14] = test system: Homo sapiens; assay: In vivo inhibition of BACE1 in human assessed as reduction in amyloidbeta(1 to 42 residues) level in CSF at 50 mg, qd administered up to 14 days relative to control; type: functional
[15] = target: P-glycoprotein (ABCB1) (Homo sapiens, UniProt P08183); assay: Substrate activity at p-glycoprotein (unknown origin) assessed as efflux ratio; settings: not told
[16] = target: T1, Beta-secretase 1; assay: Inhibition of BACE1 (unknown origin)
[17] = target: T2, Beta-secretase 2; assay: Inhibition of BACE2 (unknown origin)
[18] = target: T1, Beta-secretase 1; assay: Inhibition of BACE1 (unknown origin) assessed as reduction in amyloidbeta 40 level after 24 hrs by cell-based sandwich ELISA
[19] = target: Cathepsin D (Homo sapiens, UniProt P07339); assay: Inhibition of recombinant Cathepsin D (unknown origin) expressed in CHO cells preincubated for 1 hr followed by substrate addition and measured after 1 hr by FRET assay; type: cell-based
[20] = target: Beta-secretase 1 (Rattus norvegicus, UniProt P56819); assay: Inhibition of BACE1 in Wistar rat neuronal cell suspension after 1 to 3 days by ELISA
[21] = target: T1, Beta-secretase 1; assay: Inhibition of human BACE1 using Biotin-XSEVNLDAEFRHDSGC as substrate incubated for […] by fluorescence method
[22] = test system: Homo sapiens; assay: In vivo inhibition of BACE1 in human assessed as reduction in amyloidbeta40 level in CSF at 85 mg, qd administered for 3 months relative to control; type: functional
[23] = test system: Rattus norvegicus; assay: In vivo inhibition of BACE1 in Sprague Dawley rat assessed as reduction in amyloidbeta 40 level in brain at 10 mg/kg, po measured at 3 hrs post dose by ELISA relative to control; type: functional
[24] = test system: Rattus norvegicus; assay: In vivo inhibition of BACE1 in Sprague Dawley rat assessed as reduction in amyloidbeta 40 level in brain at 30 mg/kg, po measured at 3 hrs post dose by ELISA relative to control; type: functional
[25] = target: T1, Beta-secretase 1; assay: Inhibition of BACE1 in human SK-N-BE(2) cells expressing human APP695 assessed as reduction in amyloidbeta level incubated for 18 hrs by sandwich ELISA; type: cell-based
[26] = species: Homo sapiens; assay: Selectivity ratio of IC50 for human BACE2 to IC50 for human BACE1
[27] = target: T1, Beta-secretase 1; assay: Inhibition of C-terminal His6-tagged human BACE1 expressed in mammalian expression system preincubated for 1 hr followed by substrate addition and measured after 1 hr by FRET assay
[28] = target: T2, Beta-secretase 2; assay: Inhibition of C-terminal His6-tagged human BACE2 expressed in mammalian expression system preincubated for 1 hr followed by substrate addition and measured after 1 hr by FRET assay
[29] = target: T1, Beta-secretase 1; assay: Inhibition of human BACE1 (1 to 460 residues) expressed in HEK293 cells after 16 to 24 hrs by FRET assay; type: cell-based
[30] = target: T1, Beta-secretase 1; assay: Inhibition of BACE1 in human SH-SY5Y cells expressing betaAPP assessed as reduction in amyloidbeta (1 to 40 residues) level incubated for 24 hrs by HTRF assay; type: cell-based
[31] = target: T1, Beta-secretase 1; assay: Inhibition of human BACE1 using Biotin-XSEVNLDAEFRHDSGC as substrate incubated for 2 hrs by fluorescence method
[32] = target: T2, Beta-secretase 2; assay: Inhibition of human BACE2 expressed in HEK293 cells incubated for 16 to 24 hrs by FRET assay; type: cell-based
[33] = target: T1, Beta-secretase 1; assay: Inhibition of BACE1 in human SH-SY5Y cells transfected with APP695 assessed as reduction in amyloidbeta (1 to 40 residues) incubated for 24 hrs by sandwich ELlSA; type: cell-based
[34] = target: T1, Beta-secretase 1; assay: Inhibition of human BACE1 expressed in HEK293 cells incubated for 16 to 24 hrs by FRET assay; type: cell-based

T1 sequence (P56817 whole entry): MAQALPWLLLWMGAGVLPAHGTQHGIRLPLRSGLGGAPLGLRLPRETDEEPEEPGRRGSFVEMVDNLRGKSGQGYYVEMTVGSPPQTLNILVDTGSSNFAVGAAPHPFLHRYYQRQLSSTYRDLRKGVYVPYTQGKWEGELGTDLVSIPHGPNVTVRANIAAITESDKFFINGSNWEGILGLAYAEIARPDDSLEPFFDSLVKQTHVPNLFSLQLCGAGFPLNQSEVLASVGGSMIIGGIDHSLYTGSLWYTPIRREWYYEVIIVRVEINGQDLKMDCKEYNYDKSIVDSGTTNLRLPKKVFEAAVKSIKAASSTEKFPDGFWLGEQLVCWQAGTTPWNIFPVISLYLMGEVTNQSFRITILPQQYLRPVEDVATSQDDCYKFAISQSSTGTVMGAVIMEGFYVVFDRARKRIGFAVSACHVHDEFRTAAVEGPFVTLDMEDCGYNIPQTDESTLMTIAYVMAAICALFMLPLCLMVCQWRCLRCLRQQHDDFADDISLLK
Beta-secretase 1 (Rattus norvegicus, UniProt P56819), sequence (P56819 whole entry): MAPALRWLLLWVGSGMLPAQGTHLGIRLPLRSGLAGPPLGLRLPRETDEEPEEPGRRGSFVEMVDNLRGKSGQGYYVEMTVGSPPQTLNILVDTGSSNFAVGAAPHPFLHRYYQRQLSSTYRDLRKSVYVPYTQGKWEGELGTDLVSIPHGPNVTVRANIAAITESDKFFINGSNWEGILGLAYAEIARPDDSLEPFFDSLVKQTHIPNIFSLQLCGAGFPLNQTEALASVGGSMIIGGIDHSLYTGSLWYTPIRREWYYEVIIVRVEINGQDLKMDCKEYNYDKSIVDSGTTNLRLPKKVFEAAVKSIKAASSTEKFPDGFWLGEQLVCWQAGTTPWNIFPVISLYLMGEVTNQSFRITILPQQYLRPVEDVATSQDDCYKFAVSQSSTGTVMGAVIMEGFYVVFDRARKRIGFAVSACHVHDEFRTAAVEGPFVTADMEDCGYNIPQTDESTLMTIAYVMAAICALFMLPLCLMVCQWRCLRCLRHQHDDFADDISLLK
P-glycoprotein (ABCB1), sequence (P08183 whole entry): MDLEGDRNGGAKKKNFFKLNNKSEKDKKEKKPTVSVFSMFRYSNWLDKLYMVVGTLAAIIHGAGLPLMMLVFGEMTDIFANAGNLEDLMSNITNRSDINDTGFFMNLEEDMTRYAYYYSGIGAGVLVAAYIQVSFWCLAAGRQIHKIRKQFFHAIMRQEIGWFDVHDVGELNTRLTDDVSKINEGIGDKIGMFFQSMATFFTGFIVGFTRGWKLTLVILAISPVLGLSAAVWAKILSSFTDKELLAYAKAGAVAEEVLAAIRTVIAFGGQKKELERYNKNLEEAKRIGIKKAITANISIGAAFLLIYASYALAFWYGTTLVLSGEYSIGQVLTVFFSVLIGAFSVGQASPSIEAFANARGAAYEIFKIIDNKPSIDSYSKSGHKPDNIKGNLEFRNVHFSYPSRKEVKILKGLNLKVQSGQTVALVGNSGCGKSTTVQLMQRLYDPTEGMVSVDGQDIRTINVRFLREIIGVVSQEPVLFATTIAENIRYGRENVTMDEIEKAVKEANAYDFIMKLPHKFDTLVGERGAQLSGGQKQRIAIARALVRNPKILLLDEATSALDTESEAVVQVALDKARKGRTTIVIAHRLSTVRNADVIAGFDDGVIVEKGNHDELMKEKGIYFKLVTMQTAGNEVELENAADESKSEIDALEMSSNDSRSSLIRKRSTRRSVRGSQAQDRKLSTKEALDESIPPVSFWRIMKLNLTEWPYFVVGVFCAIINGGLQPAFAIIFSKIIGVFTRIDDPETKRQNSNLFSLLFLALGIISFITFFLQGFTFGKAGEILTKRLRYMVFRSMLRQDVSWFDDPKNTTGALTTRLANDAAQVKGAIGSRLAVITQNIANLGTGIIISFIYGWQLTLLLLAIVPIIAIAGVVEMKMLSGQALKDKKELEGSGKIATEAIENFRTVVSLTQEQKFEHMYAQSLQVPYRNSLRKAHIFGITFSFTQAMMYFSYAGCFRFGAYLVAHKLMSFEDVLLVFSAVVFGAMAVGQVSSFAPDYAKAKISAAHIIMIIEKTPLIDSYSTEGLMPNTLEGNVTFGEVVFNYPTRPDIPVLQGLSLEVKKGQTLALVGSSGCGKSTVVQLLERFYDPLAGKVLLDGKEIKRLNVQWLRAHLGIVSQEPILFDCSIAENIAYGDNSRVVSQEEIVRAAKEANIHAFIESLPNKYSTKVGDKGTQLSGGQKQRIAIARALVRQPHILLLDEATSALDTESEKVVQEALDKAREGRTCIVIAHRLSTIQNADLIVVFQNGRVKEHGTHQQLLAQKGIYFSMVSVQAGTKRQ
Cathepsin D, sequence (P07339 65-162 limits assumed): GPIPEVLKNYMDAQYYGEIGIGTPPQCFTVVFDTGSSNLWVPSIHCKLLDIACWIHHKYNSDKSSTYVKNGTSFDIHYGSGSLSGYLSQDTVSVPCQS
Cathepsin D, sequence (P07339 169-412 limits assumed): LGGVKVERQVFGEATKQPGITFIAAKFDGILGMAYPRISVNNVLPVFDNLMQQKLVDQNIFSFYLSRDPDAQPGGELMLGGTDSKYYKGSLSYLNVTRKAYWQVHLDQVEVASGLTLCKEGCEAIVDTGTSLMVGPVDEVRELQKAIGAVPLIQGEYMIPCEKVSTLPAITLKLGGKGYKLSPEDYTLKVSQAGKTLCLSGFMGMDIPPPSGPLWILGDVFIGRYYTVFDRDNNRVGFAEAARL

Cc1cc(C#N)cnc1C(=O)Nc1ccc(F)c([C@]2(C)CS3(=O)=NCCCCC3(C)C(N)=N2)c1 (stereo not given in full)
IC50 [1]: 0.2 nM
inhibition in vivo at 30 mg/kg [2]: 52%

NC1=N[C@@]2(COc3ccc(NC(=O)c4cnc(OCC(F)(F)F)cn4)cc32)[C@H](C(F)(F)F)C1
IC50 [3]: 7080 nM

C[C@@]1(c2cc(NC(=O)c3ccc(C#N)cn3)ccc2F)CCC(N)=N1
pKa [4]: 11.1
IC50 [3]: 1050 nM

C[C@@]1(S(C)(=O)=O)CC[C@@](CF)(c2cc(NC(=O)c3ccc(OCF)cn3)ccc2F)N=C1N
IC50 [5]: 2.2 nM
inhibition in vivo at 0.31 mg/kg [6]: 78%
inhibition in vivo at 0.16 mg/kg [7]: 71%
inhibition in vivo at 1.25 mg/kg [8]: 89%
IC50 [9]: 1.6 nM
IC50 [10]: 16.6 nM

C[C@H]1C[C@H]2CSC(N)=N[C@@]2(c2cc(NC(=O)c3ccc(OC(F)F)cn3)ccc2F)CO1
IC50 [11]: < 1 nM
pKa [4]: 8.3

C[C@H]1C[C@H]2CSC(N)=N[C@@]2(c2nc(NC(=O)c3ccc(OC(F)F)cn3)cs2)CO1
inhibition (INH) [12]: 84%
inhibition (INH) [13]: 93%
pKa [4]: 6.9
inhibition (INH) [14]: 69%

C[C@@]1(c2cc(NC(=O)c3ccc(OCF)cn3)ccc2F)C[C@@H](C(F)(F)F)SC(N)=N1
efflux ratio [15]: 0.7
IC50 [16]: 5.67 nM
IC50 [17]: 1 nM

Cc1cc(C#N)cnc1C(=O)Nc1ccc(F)c([C@@]2(C)N=C(N)C(C)(C)[S@@]3(=O)=NCC[C@@H]23)c1
inhibition in vivo at 30 mg/kg [2]: 86%

Cc1cc(Cl)cnc1C(=O)Nc1ccc2c(c1)[C@@]1(C)N=C(N)C(C)(C)S(=O)(=O)[C@@H]1CCO2
IC50 [18]: 6 nM
IC50 [19]: > 100 µM

C[C@H]1OC[C@]2(c3cc(NC(=O)c4ccc(C#N)cn4)ccc3F)N=C(N)[C@](C)(C#N)C[C@H]12
IC50 [5]: 1.86 nM
inhibition in vivo at 0.31 mg/kg [6]: 54%
inhibition in vivo at 0.16 mg/kg [7]: 42%
inhibition in vivo at 1.25 mg/kg [8]: 80%
IC50 [9]: 1.26 nM
IC50 [10]: 14.5 nM

COc1cnc(C(=O)Nc2ccc(F)c([C@]34CO[C@H](C(F)(F)F)[C@H]3CSC(N)=N4)c2)cn1
IC50 [20]: 8 nM

C#C[C@]1(c2cc(NC(=O)c3ccc(C#N)cn3)ccc2F)N=C(N)O[C@@H]2C[C@@H]21
IC50 [21]: 22.8 nM

COc1cnc(C(=O)Nc2ccc(F)c([C@]34CO[C@H](C(F)F)[C@H]3CSC(N)=N4)c2)cn1
IC50 [20]: 4 nM

C[C@]1(c2cc(NC(=O)c3ccc(C#N)cn3)ccc2F)N=C(N)C[C@H]1C(F)(F)F
pKa [4]: 9
IC50 [3]: 182 nM

C[C@@]1(c2nc(NC(=O)c3ncc(C(F)(F)F)cc3Cl)ccc2F)CO[C@@](C)(C(F)(F)F)C(N)=N1
inhibition (INH) [22]: >90%

COc1ccc(C(=O)Nc2ccc(F)c([C@]34COC[C@@]3(F)C[C@](C)(F)C(N)=N4)c2)nc1
inhibition in vivo at 10 mg/kg [23]: 48%
inhibition in vivo at 30 mg/kg [24]: 64%

COc1ncc(CC2CCOCC2)c2c1C[C@]1(c3ccc(F)cc3F)N=C(N)SC[C@@H]1C2
IC50 [25]: 0.76 nM

CC(F)(F)[C@H]1OC[C@]2(c3cc(NC(=O)c4cnc(-n5cncn5)cn4)ccc3F)N=C(N)SC[C@H]12
Ratio IC50 [26]: > 400

NC1=N[C@](CF)(c2cc(NC(=O)c3cnc(Cl)cn3)ccc2F)[C@@H]2C[C@]2(C(F)F)S1
IC50 [18]: 3.7 nM
IC50 [27]: 1.6 nM
IC50 [28]: 13.2 nM

NC1=N[C@@]2(c3cccc(NC(=O)c4cnc(C(F)F)cn4)c3)CCO[C@H]2CS1
IC50 [20]: 8 nM

COc1nc(N2C[C@H]3CSC(N)=N[C@@]3(c3ccns3)C2)nc(C)c1F
IC50 [29]: 172 nM

COc1cnc(C(=O)Nc2ccnc([C@]34CN(c5ncc(F)cn5)C[C@H]3CSC(N)=N4)c2)cn1
IC50 [29]: 0.9 nM

COc1ncc(C(=O)NC2CC2)c2c1C[C@]1(c3ccc(F)cc3F)N=C(N)SC[C@@H]1C2
IC50 [25]: 9.6 nM

C[C@H]1SC(N)=N[C@](C)(c2cc(NC(=O)c3cnc(F)cn3)ccc2F)C12CC(F)(F)C2
IC50 [30]: 5.4 nM
IC50 [31]: 11.9 nM

COc1ccc(C(=O)Nc2ccc(F)c([C@]3(C)CC[C@@](C)(C#N)C(N)=N3)c2)nc1
IC50 [5]: 9.8 nM
IC50 [9]: 6.9 nM
IC50 [10]: 66 nM

NC1=N[C@](CF)(c2cc(NC(=O)c3cnc(Cl)cn3)cc(F)c2F)[C@H]2[C@@H](S1)C2(F)F
IC50 [18]: 11.2 nM
IC50 [27]: 15.2 nM
IC50 [28]: 3.02 nM

C[C@]1(c2cc(NC(=O)c3ccc(C#N)cn3)ccc2F)N=C(N)OC2(COC2)[C@H]1F
IC50 [21]: 20.7 nM

CC(F)(F)[C@H]1OC[C@]2(c3cc(NC(=O)c4ccc(C(F)(F)F)cn4)ccc3F)N=C(N)SC[C@H]12
IC50 [32]: 602 nM
IC50 [33]: 1.03 nM
IC50 [34]: 11.9 nM

C[C@H]1SC(N)=N[C@](C)(c2cc(NC(=O)c3ccc(OC(F)F)cn3)ccc2F)[C@H]1F
IC50 [30]: 1.2 nM
IC50 [31]: 4.77 nM
